In patent publication US9827265B1, “Method for attenuating free radical formation resulting from a bodily insult” (MD Scientific, LLC, priority 2012, dated 2017):
Read-outs that look alike come from different tables or passages of the source.

[1] = high risk subjects with injection of iodinated contrast in the cardiac arteries, total 1.96 mEq/kg, 40% prior to and 60% during and after the contrast, sodium concentration 154 mEq/L, death primarily from cardiac failure

O=C([O-])O.[Na+] [sodium bicarbonate solution, sodium bicarbonate]
incidence of death [1]: 3.2% | incidence of death (subjects with other types of iodinated contrast injection (other non-cardiac arteries), compared between both study cohorts): same incidence of death in both study cohorts

[Cl-].[Na+] [sodium chloride (saline), sodium chloride]
incidence of death [1]: 10.1%
